Reference: publication PMC6150237, “Study of Absorption Characteristics of the Total Saponins from Radix Ilicis Pubescentis in an In Situ Single-Pass Intestinal Perfusion (SPIP) Rat Model by Using Ultra Performance Liquid Chromatography (UPLC)” (Molecules : A Journal of Synthetic Chemistry and Natural …, 2017)
“Also recorded” adds a separate entry of the source.

Experiments:
[1] = tested on: rat small intestine (duodenum, jejunum, ileum); assay: In situ single-pass intestinal perfusion (SPIP), saponins administrated in monomer forms; type: in vivo; design: key to Papp / Ka: -: no absorption; conditions: monomer form; for Ka / Papp: symbol; for intestinal absorption of monomers: small intestine, result in words
Procedure: (§1) MDQ-TS perfusion samples at low, middle, and high concentration levels of 1.25, 2.5, and 5.0 mg·mL^−1 were prepared by separately dissolving MDQ-TS in the minimum amount of DMSO and diluted with K-R buffer solution. The amount of DMSO was 0.5% in the final perfusion solutions. C1, C2, C3, C4, DC1, and DC2 perfusion samples with the concentration equivalent to the amount contained in 2.5 mg·mL^−1 of MDQ-TS were individually prepared in the same way. Verapamil, amantadine and EDTA were directly dissolved in the MDQ-TS perfusate with terminal concentrations of 200 μmol·L^−1, 2.5 mmol·L^−1, and 2.5 mmol·L^−1, accordingly, and used for investigating the mechanisms involved for absorption.
(§2) In situ single-pass intestinal perfusion (SPIP) studies were performed using an experimental design adapted from the literature with some modifications. Briefly, male Sprague-Dawley rats weighing 180–220 g were acclimatized for at least one week before the experiment, and fasted for 18 h with free access to water before the perfusion experiment. Rats were anesthetized with an intraperitoneal injection of urethane (30 mg·kg^−1 body weight), and kept on a homeothermic blanket to maintain normal body temperature. The abdomen was opened with a midline longitudinal incision, and three segments of rat intestine (duodenum, jejunum, and ileum) of approximately 10 cm each were carefully cannulated on two ends with plastic tubing. Initially, the perfusion solution free of drug (37 °C) was pumped by peristaltic pump (BT100-1F, Longer Pump Co., Baoding, China) through the cannulated segments at a flow rate of 1 mL/min for approximately 30 min in order to clean out any residual debris. Secondly, the perfusion solution containing a known concentration of substance (C1, C2, C3, C4, DC1, DC2, and MDQ-TS) was perfused at 37 °C through the intestinal lumen at a constant flow rate of 0.2 mL/min. The first 20 min of period corresponds to steady state, i.e., when the substance is in equilibrium with the intestinal membrane. After steady state, samples were collected from distal portion of duodenum, jejunum and ileum at 10 min intervals (0–10, 10–20, 20–30, 30–40, 40–50, 50–60 min) in pre-weighted vials. Samples were immediately frozen at −20 °C until analysis by validated UPLC. During the experiment, care was taken to avoid disturbance of the circulatory system and the exposed segment was covered with a piece of sterilized gauze to keep it warm and moist by frequent application of warm (37 °C) saline. The intestinum tenue maintained its viability and intact state without disrupting the blood supply throughout the experimental period. Finally, animals were sacrificed after depth anesthesia by intraperitoneal injection of urethane, according to protocols for euthanasia in experimental animals. After death, the intestinal segment was removed for measurements of length and inside diameter.
(§3) The net water flux in the in situ perfusion studies (water absorption and efflux in the intestinal segment) was determined by gravimetric method. The effective absorption rate constant (Ka) and effective apparent permeability (Papp) of compounds in the intestinal segments were calculated according to the following mathematical expression:(1) Ka=(1−CoutQout/CinQin)Q/V (2) Papp=−Qln(CoutQout/CinQin)/2πrl where Cin and Cout are the concentration of test drug in the effluent perfusate through the inlet and outlet tube (μg·mL^−1), respectively. Qin and Qout represent the inlet and outlet volume of effluent perfusate (mL), respectively. Q is the volume flow rate of perfusion (mL·h^−1). V is the volume of the intestinal segment concerned (mL). 2πrl is the area of the mass transfer surface of intestinal segment concerned (cm^2).

[2] = Apparent oil-water partition coefficient, shake-flask method; type: physicochemical; conditions: n-octanol / phosphate buffer pH 1.2-9.0, 37 °C; Kow = log Co/(Ct−Co)
Procedure: The equilibrium partitioning of C1, C2, C3, C4, DC1, and DC2 between organic lipid and water (Kow) was determined in our study by the traditional shake-flask method (SFM). Briefly, 0.5 mL of each saponin standard working solution (100 µg·mL^−1 in water-saturated n-octanol) was accurately measured into 5 mL centrifuge tubes, and spiked with 0.5 mL of different phosphate buffer solutions (pH: 1.2, 2.0, 3.6, 5.8, 6.8, 7.4, 7.8, and 9.0), respectively. After vortex-mixing for 45 min, the tubes were kept in a temperature-stable horizontal shaking bath (37 °C) for 24 h, and then centrifuged at 13,000 rpm for 10 min. Two hundred microliters of organic supernatant solution was measured, diluted with 800 µL of methanol, and mixed well. Ten microliters of the final solution was injected into the HPLC system (detailed experimental conditions and method validation results were not shown) for determination of the drug concentration in the n-octanol phase. The Kow values of the six saponins were calculated according to the following mathematical expression:(3) Kow=logCo/Ct−Co where Ct is the total concentration of the drug, and Co is the concentration of the drug in n-octanol phase.

rat duodenum = assay: SPIP of MDQ-TS with or without verapamil (P-gp inhibitor); type: in vivo; conditions: MDQ-TS 2.5 mg/mL
Procedure: as §1, §2
as §3, with “(cm^2). […]” for “(cm^2).”

[3] = tested on: rat small intestine (duodenum, jejunum, ileum); assay: In situ single-pass intestinal perfusion (SPIP), saponins administrated in MDQ-TS form; type: in vivo; design: key: -: no absorption
Procedure: as §1, §2, §3

[4] = MDQ-TS form 1.25 mg·mL^−1, duodenum, n = 5
[5] = MDQ-TS form 1.25 mg·mL^−1, ileum, n = 5
[6] = MDQ-TS form 1.25 mg·mL^−1, jejunum, n = 5
[7] = MDQ-TS form 2.5 mg·mL^−1, duodenum, n = 5
[8] = MDQ-TS form 2.5 mg·mL^−1, ileum, n = 5
[9] = MDQ-TS form 2.5 mg·mL^−1, jejunum, n = 5
[10] = MDQ-TS form 5.0 mg·mL^−1, duodenum, n = 5
[11] = MDQ-TS form 5.0 mg·mL^−1, ileum, n = 5
[12] = MDQ-TS form 5.0 mg·mL^−1, jejunum, n = 5
[13] = administrated in MDQ-TS form, summary bound (except DC2 in 1.25 mg·mL^−1 MDQ-TS group)
[14] = MDQ-TS form 1.25 mg·mL^−1, duodenum, symbol
[15] = MDQ-TS form 1.25 mg·mL^−1, ileum, symbol
[16] = MDQ-TS form 1.25 mg·mL^−1, jejunum, symbol

Row | SMILES | Ka ([1]; duodenum) | Papp ([1]; duodenum) | Ka ([1]; ileum) | Papp ([1]; ileum) | Ka ([1]; jejunum) | Papp ([1]; jejunum) | intestinal absorption of monomers [1] | apparent oil-water partition coefficient (Kow) [2] | Ka [3, 7] | Papp [3, 7] | Ka [3, 8] | Papp [3, 8] | Ka [3, 9] | Papp [3, 9] | Ka [3, 10] | Papp [3, 10] | Ka [3, 11] | Papp [3, 11] | Ka [3, 12] | Papp [3, 12] | further results
1 | C[C@@H]1O[C@@H](O[C@H]2[C@H](O[C@H]3[C@H](O[C@H]4CC[C@]5(C)[C@H]6CC=C7[C@H]8[C@](C(=O)O)(CC[C@H](C)[C@@]8(C)O)CC[C@@]7(C)[C@]6(C)CC[C@H]5C4(C)C)OC[C@@H](O)[C@@H]3O)O[C@H](CO)[C@@H](O)[C@@H]2O)[C@H](O)[C@H](O)[C@H]1O [C4, ilexsaponin B2] | - | - | - | - | - | - | could not be absorbed by small intestine at all; also recorded: no absorption; also recorded: could not be absorbed by the gastrointestinal tract at all | −1 to 2 | 1.94 ± 0.50 ×10^−2 min^−1 | 0.42 ± 0.05 ×10^−2 cm·min^−1 | 2.53 ± 0.29 ×10^−2 min^−1 | 0.40 ± 0.03 ×10^−2 cm·min^−1 | 3.19 ± 0.56 ×10^−2 min^−1 | 0.49 ± 0.03 ×10^−2 cm·min^−1 | 1.87 ± 0.86 ×10^−2 min^−1 | 0.40 ± 0.22 ×10^−2 cm·min^−1 | 1.52 ± 0.92 ×10^−2 min^−1 | 0.26 ± 0.15 ×10^−2 cm·min^−1 | 1.92 ± 0.61 ×10^−2 min^−1 | 0.45 ± 0.18 ×10^−2 cm·min^−1 | Ka increase in comparison with non-Verapamil added group (rat duodenum; verapamil 200 μmol·L^−1): about 1.5 fold; Ka [3, 4]: 1.04 ± 0.31 ×10^−2 min^−1; Papp [3, 4]: 0.20 ± 0.09 ×10^−2 cm·min^−1; Ka [3, 5]: 0.83 ± 0.28 ×10^−2 min^−1; Papp [3, 5]: 0.14 ± 0.04 ×10^−2 cm·min^−1; Ka [3, 6]: 0.84 ± 0.47 ×10^−2 min^−1; Papp [3, 6]: 0.14 ± 0.05 ×10^−2 cm·min^−1; Papp [3, 13]: > 0.0012 cm/min
2 | C[C@@H]1O[C@@H](O[C@H]2[C@H](O[C@H]3[C@H](O[C@H]4CC[C@]5(C)[C@H]6CC=C7[C@H]8[C@](C(=O)O[C@@H]9O[C@H](CO)[C@@H](O)[C@H](O)[C@H]9O)(CC[C@H](C)[C@@]8(C)O)CC[C@@]7(C)[C@]6(C)CC[C@H]5C4(C)C)OC[C@@H](O)[C@@H]3O)O[C@H](CO)[C@@H](O)[C@@H]2O)[C@H](O)[C@H](O)[C@H]1O [DC2, ilexoside O] | - | - | - | - | - | - | could not be absorbed by small intestine at all; also recorded: no absorption; also recorded: could not be absorbed by the gastrointestinal tract at all | −1 to 2 | 0.62 ± 0.13 ×10^−2 min^−1 | 0.16 ± 0.06 ×10^−2 cm·min^−1 | 1.54 ± 0.85 ×10^−2 min^−1 | 0.19 ± 0.08 ×10^−2 cm·min^−1 | 1.23 ± 0.46 ×10^−2 min^−1 | 0.21 ± 0.08 ×10^−2 cm·min^−1 | 1.27 ± 0.44 ×10^−2 min^−1 | 0.25 ± 0.16 ×10^−2 cm·min^−1 | 1.14 ± 0.45 ×10^−2 min^−1 | 0.19 ± 0.07 ×10^−2 cm·min^−1 | 1.73 ± 0.66 ×10^−2 min^−1 | 0.26 ± 0.17 ×10^−2 cm·min^−1 | intestinal absorption in Verapamil added group (rat duodenum; verapamil 200 μmol·L^−1, result in words): could not be absorbed by the small intestine at all; Ka [3, 14]: -; Papp [3, 14]: -; Ka [3, 15]: -; Papp [3, 15]: -; Ka [3, 16]: -; Papp [3, 16]: -; Papp [3, 13]: > 0.0012 cm/min
